Test results: patent publication US20220402882A1, “HERBICIDAL COMPOUNDS” (SYNGENTA CROP PROTECTION AG, priority 2019, published 2022)

How the values were obtained:
DIGSA = test: Comparative experiment, POST application; type: in vivo
Description: (§1) A comparative experiment is conducted to show the advantage provided by the compounds of the present invention. Thus the biological performance of representative compounds […] Compound 4-460 of the type referred to in WO2012/028579. Results are given as (%) phytotoxicity observed.

ZEAMX/maize = test: Comparative experiment, POST application; type: in vivo; conditions: crop
Description: as §1

IPOHE = test: Comparative experiment, POST application; type: in vivo, Ipomoea hederacea
Description: as §1

ECHCG = test: Comparative experiment, POST application; type: in vivo, Echinochloa crus-galli
Description: as §1

SETFA = test: Comparative experiment, POST application; type: in vivo, Setaria faberi
Description: as §1

ABUTH = test: Comparative experiment, POST application; type: in vivo, Abutilon theophrasti
Description: as §1

AMARE = test: Comparative experiment, POST application; type: in vivo, Amaranthus retoflexus
Description: as §1

[1] = system: Abutilon theophrasti (ABUTH); test: Pre-emergence glasshouse herbicide test; type: in vivo; conditions: 125 g/h, evaluated after 13 days
Procedure, shortened: (§2)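 Scores are percentage plant damage 13 days after treatment, binned 5=80-100%, 4=60-79%, 3=40-59%, 2=20-39%, 1=0-19%. Compounds were sprayed at 125 g/h unless otherwise indicated, either one day after sowing or on 8-day-old plants, under 24/16 °C, 14 h light and 65% humidity.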

[2] = system: Amaranthus retoflexus (AMARE); test: Pre-emergence glasshouse herbicide test; type: in vivo; conditions: 125 g/h, evaluated after 13 days
Procedure, shortened: as §2

[3] = system: Echinochloa crus-galli (ECHCG); test: Pre-emergence glasshouse herbicide test; type: in vivo; conditions: 125 g/h, evaluated after 13 days
Procedure, shortened: as §2

[4] = system: Ipomoea hederacea (IPOHE); test: Pre-emergence glasshouse herbicide test; type: in vivo; conditions: 125 g/h, evaluated after 13 days
Procedure, shortened: as §2

Setaria faberi (SETFA) [5] = test: Pre-emergence glasshouse herbicide test; type: in vivo; conditions: 125 g/h, evaluated after 13 days
Procedure, shortened: as §2

[6] = system: Abutilon theophrasti (ABUTH); test: Post-emergence glasshouse herbicide test; type: in vivo; conditions: 125 g/h, evaluated after 13 days
Procedure, shortened: as §2

[7] = system: Amaranthus retoflexus (AMARE); test: Post-emergence glasshouse herbicide test; type: in vivo; conditions: 125 g/h, evaluated after 13 days
Procedure, shortened: as §2

[8] = system: Echinochloa crus-galli (ECHCG); test: Post-emergence glasshouse herbicide test; type: in vivo; conditions: 125 g/h, evaluated after 13 days
Procedure, shortened: as §2

[9] = system: Ipomoea hederacea (IPOHE); test: Post-emergence glasshouse herbicide test; type: in vivo; conditions: 125 g/h, evaluated after 13 days
Procedure, shortened: as §2

Setaria faberi (SETFA) [10] = test: Post-emergence glasshouse herbicide test; type: in vivo; conditions: 125 g/h, evaluated after 13 days
Procedure, shortened: as §2

Structure (SMILES)	percentage damage caused to the plant, ABUTH [1]	percentage damage caused to the plant, AMARE [2]	percentage damage caused to the plant, ECHCG [3]	percentage damage caused to the plant, IPOHE [4]	percentage damage caused to the plant, SETFA (Setaria faberi (SETFA) [5])	percentage damage caused to the plant, ABUTH [6]	percentage damage caused to the plant, AMARE [7]	percentage damage caused to the plant, ECHCG [8]	percentage damage caused to the plant, IPOHE [9]	percentage damage caused to the plant, SETFA (Setaria faberi (SETFA) [10])	other results
Cn1nnnc1NC(=O)c1ccc(C(F)(F)F)c(S(C)(=O)=O)c1Cl [Compound 4-640, reference compound]	–	–	–	–	–	–	–	–	–	–	(%) phytotoxicity observed, DIGSA (DIGSA; rate 15 g/ha): 80%; (%) phytotoxicity observed, DIGSA (DIGSA; rate 30 g/ha): 80%; (%) phytotoxicity observed, ZEAMX (ZEAMX/maize; rate 15 g/ha): 40%; (%) phytotoxicity observed, ZEAMX (ZEAMX/maize; rate 30 g/ha): 70%; (%) phytotoxicity observed, IPOHE (IPOHE; rate 15 g/ha): 90%; (%) phytotoxicity observed, IPOHE (IPOHE; rate 30 g/ha): 90%; (%) phytotoxicity observed, ECHCG (ECHCG; rate 15 g/ha): 80%; (%) phytotoxicity observed, ECHCG (ECHCG; rate 30 g/ha): 90%; (%) phytotoxicity observed, SETFA (SETFA; rate 15 g/ha): 90%; (%) phytotoxicity observed, SETFA (SETFA; rate 30 g/ha): 90%; (%) phytotoxicity observed, ABUTH (ABUTH; rate 15 g/ha): 90%; (%) phytotoxicity observed, ABUTH (ABUTH; rate 30 g/ha): 90%; (%) phytotoxicity observed, AMARE (AMARE; rate 15 g/ha): 90%; (%) phytotoxicity observed, AMARE (AMARE; rate 30 g/ha): 90%
CCS(=O)(=O)c1c(OCC(F)(F)F)ccc(C(=O)Nc2nnc(C)o2)c1C [Compound 2.018]	5 (5=80-100%)	5 (5=80-100%)	5 (5=80-100%)	4 (4=60-79%)	5 (5=80-100%)	5 (5=80-100%)	5 (5=80-100%)	5 (5=80-100%)	5 (5=80-100%)	5 (5=80-100%)	–
CCSc1c(OC(F)(F)F)ccc(C(=O)Nc2nnnn2C)c1C [Compound 1.030]	5 (5=80-100%)	5 (5=80-100%)	5 (5=80-100%)	3 (3=40-59%)	5 (5=80-100%)	5 (5=80-100%)	5 (5=80-100%)	5 (5=80-100%)	5 (5=80-100%)	5 (5=80-100%)	–
CCSc1c(OC(F)F)ccc(C(=O)Nc2nnc(C)o2)c1Cl [Compound 2.012]	4 (4=60-79%)	5 (5=80-100%)	5 (5=80-100%)	3 (3=40-59%)	5 (5=80-100%)	5 (5=80-100%)	5 (5=80-100%)	5 (5=80-100%)	4 (4=60-79%)	5 (5=80-100%)	–
CC(C)CS(=O)(=O)c1c(OC(F)F)ccc(C(=O)Nc2nnnn2C)c1Cl [Compound 1.052]	5 (5=80-100%)	5 (5=80-100%)	5 (5=80-100%)	5 (5=80-100%)	5 (5=80-100%)	5 (5=80-100%)	4 (4=60-79%)	4 (4=60-79%)	5 (5=80-100%)	4 (4=60-79%)	–
CCCSc1c(OC(F)F)ccc(C(=O)Nc2nnnn2CC)c1Cl [Compound 1.067]	4 (4=60-79%)	5 (5=80-100%)	5 (5=80-100%)	2 (2=20-39%)	4 (4=60-79%)	5 (5=80-100%)	5 (5=80-100%)	4 (4=60-79%)	4 (4=60-79%)	4 (4=60-79%)	–
CCn1nnnc1NC(=O)c1ccc(OCC(F)(F)F)c(S(=O)(=O)CC)c1Cl [Compound 1.065]	5 (5=80-100%)	5 (5=80-100%)	5 (5=80-100%)	3 (3=40-59%)	5 (5=80-100%)	5 (5=80-100%)	5 (5=80-100%)	5 (5=80-100%)	4 (4=60-79%)	5 (5=80-100%)	–
CC[S+]([O-])c1c(OC(F)F)ccc(C(=O)Nc2nnnn2C)c1Cl (stereo not drawn) [Compound 1.026]	5 (5=80-100%)	5 (5=80-100%)	5 (5=80-100%)	5 (5=80-100%)	5 (5=80-100%)	5 (5=80-100%)	5 (5=80-100%)	5 (5=80-100%)	5 (5=80-100%)	5 (5=80-100%)	–
Cn1nnnc1NC(=O)c1ccc(OC(F)F)c(S(C)(=O)=O)c1Cl [Compound 1.003, 2-chloro-4-(difluoromethoxy)-3-methylsulfonyl-N-(1-methyltetrazol-5-yl)benzamide]	5 (5=80-100%)	5 (5=80-100%)	5 (5=80-100%)	1 (1=0-19%)	5 (5=80-100%)	5 (5=80-100%)	5 (5=80-100%)	5 (5=80-100%)	5 (5=80-100%)	5 (5=80-100%)	(%) phytotoxicity observed, DIGSA (DIGSA; rate 15 g/ha): 80%; (%) phytotoxicity observed, DIGSA (DIGSA; rate 30 g/ha): 80%; (%) phytotoxicity observed, ZEAMX (ZEAMX/maize; rate 15 g/ha): 0%; (%) phytotoxicity observed, ZEAMX (ZEAMX/maize; rate 30 g/ha): 0%; (%) phytotoxicity observed, IPOHE (IPOHE; rate 15 g/ha): 100%; (%) phytotoxicity observed, IPOHE (IPOHE; rate 30 g/ha): 100%; (%) phytotoxicity observed, ECHCG (ECHCG; rate 15 g/ha): 90%; (%) phytotoxicity observed, ECHCG (ECHCG; rate 30 g/ha): 90%; (%) phytotoxicity observed, SETFA (SETFA; rate 15 g/ha): 80%; (%) phytotoxicity observed, SETFA (SETFA; rate 30 g/ha): 90%; (%) phytotoxicity observed, ABUTH (ABUTH; rate 15 g/ha): 90%; (%) phytotoxicity observed, ABUTH (ABUTH; rate 30 g/ha): 100%; (%) phytotoxicity observed, AMARE (AMARE; rate 15 g/ha): 100%; (%) phytotoxicity observed, AMARE (AMARE; rate 30 g/ha): 100%
CCSc1c(OC(F)F)ccc(C(=O)Nc2nnnn2C)c1Cl [Compound 1.027]	5 (5=80-100%)	5 (5=80-100%)	5 (5=80-100%)	3 (3=40-59%)	5 (5=80-100%)	5 (5=80-100%)	5 (5=80-100%)	5 (5=80-100%)	4 (4=60-79%)	5 (5=80-100%)	–
CCn1nnnc1NC(=O)c1ccc(OCC(F)(F)F)c(S(=O)(=O)CC)c1C [Compound 1.063]	5 (5=80-100%)	5 (5=80-100%)	5 (5=80-100%)	4 (4=60-79%)	5 (5=80-100%)	5 (5=80-100%)	5 (5=80-100%)	5 (5=80-100%)	3 (3=40-59%)	5 (5=80-100%)	–
CCS(=O)(=O)c1c(OCC(F)(F)F)ccc(C(=O)Nc2nnnn2C)c1Cl [Compound 1.035]	5 (5=80-100%)	5 (5=80-100%)	5 (5=80-100%)	5 (5=80-100%)	5 (5=80-100%)	5 (5=80-100%)	5 (5=80-100%)	5 (5=80-100%)	5 (5=80-100%)	5 (5=80-100%)	–
